Experiments:
[1] = tested on: BxPC-3 tumors; assay: In vivo tumor growth assay (xenograft); design: species or system nu/nu mice; conditions: 12.5 mg/kg intraperitoneally
Description: FIG. 4. Inhibition of tumor growth in vivo by fendiline. Nu/nu mice implanted with BxPC-3 or MIAPaCa-2 tumors were treated with vehicle (DMSO) or fendiline (12.5 mg/kg) intraperitoneally and tumor sizes were measured with an external caliper every 3-4 days. Time and fendiline treatment affected MiaPaCa2 xenograft growth (2-way ANOVA, p=0.027).
Early passage BxPC-3 or MIAPaCa-2 cells were harvested, and 2-3X106 cells were implanted into the right flanks of nu/nu mice. The animals were randomized into control and treated groups (10 mice per group). Tumor volume (V) was measured with an external caliper every 3-4 days and it was calculated as V=0.52 (length×width2). Drug treatment was initiated 4 days after tumor implantation. Drugs were injected daily intraperitoneally (at doses indicated) for 5 days, with 2 days of no treatment in between. All treatments were continued until any of the subcutaneous tumors reached 1500 mm3 in volume or for 6 weeks (whichever was first), when all the animals were sacrificed and the tumors removed.

[2] = tested on: MAPK pathway inhibitors such as trametinib; assay: Combination with MAPK pathway inhibitors; conditions: preliminary findings
[3] = molecular target: human ASM (SMPD1)-GFP (Homo sapiens (Human), UniProt P17405); assay: ASM activity assay (Amplex Red SMase kit, lysates of treated cells); format: cell-based; conditions: 5 μM compound for 48 h
human ASM (SMPD1)-GFP, sequence (P17405 47-631): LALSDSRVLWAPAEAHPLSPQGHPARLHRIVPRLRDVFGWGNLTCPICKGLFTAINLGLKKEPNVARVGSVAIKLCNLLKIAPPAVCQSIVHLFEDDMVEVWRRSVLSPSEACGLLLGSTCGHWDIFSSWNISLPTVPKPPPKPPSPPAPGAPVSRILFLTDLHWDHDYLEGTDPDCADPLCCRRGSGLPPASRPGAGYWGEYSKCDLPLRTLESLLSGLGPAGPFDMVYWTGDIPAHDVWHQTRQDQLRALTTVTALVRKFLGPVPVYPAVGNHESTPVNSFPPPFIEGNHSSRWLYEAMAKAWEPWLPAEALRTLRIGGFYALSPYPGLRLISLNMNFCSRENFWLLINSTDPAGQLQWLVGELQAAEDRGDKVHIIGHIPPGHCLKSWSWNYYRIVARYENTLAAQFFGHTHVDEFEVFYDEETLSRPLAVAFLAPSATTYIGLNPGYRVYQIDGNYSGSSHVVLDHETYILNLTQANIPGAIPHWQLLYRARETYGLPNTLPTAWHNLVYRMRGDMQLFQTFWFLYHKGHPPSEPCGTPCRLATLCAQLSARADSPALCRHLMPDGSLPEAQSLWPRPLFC
Description: FIG. 6A-C. (A) Dose response curves quantifying the extent of KRASG12V and LactC2 mislocalization after 48 h treatment with compounds. Mislocalization was quantified using Manders coefficients as the fraction of mCherry-CAAX co-localizing with mGFP-KRASG12V or GFP-LactC2. (B) ASM activity in cell stably expressing GFP-tagged SMPD1 treated with DMSO or 5 μM compound for 48 h. (C) Representative western blots and quantitation of SMPD1-GFP levels in cells treated with 5 μM compounds for 48 h. (D) Representative confocal images of MDCK cells stably co-expressing mGFP-KRASG12V and mCherry-CAAX treated with 10 μM compound 6 or 1 μM of compounds 12f (NY0244), 12h (NY0331) or 22 (NY0335) for 48 h (-ASM), then incubated with recombinant ASM in the continued presence of drugs for a further 60 min (+ASM). Mislocalization was quantified using Manders coefficients as the fraction of mCherry-CAAX co-localizing with mGFP-KRASG12V.
ASM Activity Assay. The ASM activity assay was performed with Amplex Red SMase Assay Kit (A12220; Invitrogen; Carlsbad, CA) according to the manufacturer's instructions. […] The plate was further incubated in the dark in 37° C. for 60 min, and the fluorescence was measured using BioTek Synergy H1 microplate reader (excitation λ=540 nm, emission λ=590 nm). […]

| Compound | BxPC-3 xenograft growth [1] | synergy with MAPK pathway inhibitors [2] | inhibition of ASM [3] |
| --- | --- | --- | --- |
| CC(NCCC(c1ccccc1)c1ccccc1)c1ccccc1 (stereo not drawn) [Fendiline] | No significant effects |  |  |
| COc1ccc([C@@H](C)N(CC=C(c2ccccc2)c2ccccc2)CCN2CCCC2)cc1 [NY0331, (R)-N-(1-(4-methoxyphenyl)ethyl)-3,3-diphenyl-N-(2-(pyrrolidin-1-yl)ethyl)prop-2-en-1-amine] |  | synergizes | most potent |

From patent US12043602B2, “Fendiline derivatives” (The Board of Regents of the University of Texas System, priority 2019, dated 2024)
